Columns and labels:
[1] = test system: iCasp9-CD45-CAR lentivirus transduced HT1080 cells; assay: Induced cell depletion by iCasp9 safety switch; type: cell-based; conditions: 100 μM, 24h, normalized to non-treated group
Procedure: To test the effects of a suicide switch as a safety precaution, experiments were conducted to investigate the induced cell depletion effect of rimiducid on iCasp9-CD45-CAR lentivirus transduced cells. iCasp9 can be activated by a specific chemical inducer of dimerization (CID) such as rimiducid, leading to efficient elimination of iCasp9 engineered cell.
The order of iCaspase 9 and CD45 scFv components can be switched (e.g., promoter-CD45CAR-T2A-iCaspase9-etc). HT1080 cells were transduced by lentivirus. […] Transduced HT1080 cells were seeded in 24 well plate and treated with 100 μM ramiducid for 24h normalized and compared to non-treated group, and the relative survival cell number was quantified (FIG. 10C). Treating the iCasp9-CD45-CAR cells with ramiducid reduced cell survival to 36% (FIG. 10C).

PTPRC (CD45) gene = assay: CD45 protein expression after PTPRC (CD45) gene knockout by CRISPR/Cas9; type: cell-based; conditions: T cells after CRISPR/cas9 mediated CD45KO vs wild type
Source text: FIGS. 11A-11B show CD45 protein expression profile after PTPRC (CD45) gene knockout by CRISPR/Cas9 gene editing.
Cell Isolation, CD45 gene editing, CD45-CAR Lentiviral Transduction, and Ex Vivo Expansion_Leukapheresis products were obtained from consented research participants (healthy donors) under protocols approved by the City of Hope Internal Review Board (IRB). On the day of leukapheresis, peripheral blood mononuclear cells (PBMC) were isolated by density gradient centrifugation over Ficoll-Paque (GE Healthcare) followed by multiple washes in PBS/EDTA (Miltenyi Biotec). Cells were rested overnight at room temperature (RT) on a rotator, and subsequently washed and resuspended in X-VIVO T cell medium (Lonza) containing 10% FBS (complete X-VIVO). Up to 5.0×10^9 PBMC were incubated with anti-CD14 and anti-CD25 microbeads (Miltenyi Biotec) for 30 min at RT and magnetically depleted using the CliniMACS® system (Miltenyi Biotec) according to the manufacturer's protocol and these were termed depleted PBMCs (dPBMC). dPBMC were frozen in CryoStor® CS5 (StemCell Technologies) until further processing. […]
Experiments were then conducted to quantify the CD45 protein expression on wild type and CD45 knock out T cells after PTPRC (CD45) gene knockout by CRISPR/Cas9 gene editing. hCD45gRNA #3_E12, […] […]

| Compound | relative survival cell number [1] | CD45 expression (flow cytometry, MFI) (PTPRC (CD45) gene) |
| --- | --- | --- |
| CC[C@H](C(=O)N1CCCC[C@H]1C(=O)O[C@H](CCc1ccc(OC)c(OC)c1)c1cccc(OCC(=O)NCCNC(=O)COc2cccc([C@@H](CCc3ccc(OC)c(OC)c3)OC(=O)[C@@H]3CCCCN3C(=O)[C@@H](CC)c3cc(OC)c(OC)c(OC)c3)c2)c1)c1cc(OC)c(OC)c(OC)c1 [ramiducid] | 36% |  |
| CUUCUACAAAAAAUAAUCUG (SEQ ID NO: 39) (listed as RNA, chemistry not given here) [hCD45gRNA #3_E12, gRNA targeting PTPRC exon 12] |  | decreasing expression of CD45 |

Reference: patent US20230338531A1, “COMPOSITIONS AND USES OF CD45 TARGETED CHIMERIC ANTIGEN RECEPTOR MODIFIED T CELLS” (City of Hope, priority 2020, published 2023)
